Experimental data from patent publication US4900730A, “Preparation which promotes the absorption of peptides” (priority 1981, dated 1990).

Assay: Rectal circulation: Cephalothin disappeared by absorption (Examples 10-14, 16-18)
Procedure: The experiments were conducted similarly as in Example 1. […] Each sample was diluted and the quantity of Cephalothin disappeared was determined by UV-spectrophotometer of high-speed liquid chromatography.

[1] = Table 11, promoter 0.5% W/V, Example 10 repeated, four-fold tonic
[2] = Table 11, promoter 0.5% W/V, Example 10 repeated, isotonic
[3] = Table 4, promoter 0.1% W/V, 0.1% W/V Cephalothin.Na, isotonic, after one hour
[4] = Table 4, promoter 0.1% W/V, 0.1% W/V Cephalothin.Na, four-fold tonic, after one hour
[5] = Table 4, promoter 0.1% W/V, 0.1% W/V Cephalothin.Na, two-fold tonic, after one hour
[6] = Table 5, promoter 0.1% W/V, 0.1% W/V Cephalothin.Na, four-fold tonic, one hour

In the case of `NC(CS(=O)(=O)O)C(=O)O` (racemic) [DL-cysteic acid], the “Cephalothin disappeared by absorption, Osmotic pressure X 1” value (rat, in vivo) is reported as 5.3 percents, the “Cephalothin disappeared by absorption, Osmotic pressure X 2” value (rat, in vivo) is reported as 9.0 percents and the “Cephalothin disappeared by absorption, Osmotic pressure X 4” value (rat, in vivo) is reported as 14.6 percents.

For `O=C(O)[C@@H]1C[C@@H](O)CN1` (racemic) [DL-hydroxyproline], the “Cephalothin disappeared by absorption, Osmotic pressure X 4” value [1] was 12.9 percents and the “Cephalothin disappeared by absorption, Osmotic pressure X 1” value [2] was 5.5 percents.

For `NC(Cc1ccccc1)C(=O)O` (racemic) [DL-phenylalanine], the “Cephalothin disappeared by absorption, Osmotic pressure X 1” value (rat, in vivo) was 6.6 percents and the “Cephalothin disappeared by absorption, Osmotic pressure X 4” value (rat, in vivo) was 15.6 percents.

In the case of `NC(C(=O)O)c1ccccc1` (racemic) [DL-phenylglycine], the “Cephalothin disappeared by absorption, Osmotic pressure X 4” value (rat, in vivo) is reported as 29.3 percents.

For `CCC(NC(=O)CN)C(=O)O` (racemic) [Glycyl-DL-aminobutyric acid, glycyl-DL-aminobutyric acid], the “Cephalothin disappeared by absorption, Osmotic pressure X 1” value (rat, in vivo) was 11.0 percents and the “Cephalothin disappeared by absorption, Osmotic pressure X 4” value (rat, in vivo) was 30.4 percents.

For `NCC(=O)NC(CC(=O)O)C(=O)O` (racemic) [Glycyl-DL-aspartic acid, glycyl-DL-aspartic acid], the “Cephalothin disappeared by absorption, Osmotic pressure X 1” value (rat, in vivo) was 8.6 percents and the “Cephalothin disappeared by absorption, Osmotic pressure X 4” value (rat, in vivo) was 19.0 percents.

In the case of `COC(=O)C(N)CCC(=O)O` (racemic) [α-methyl DL-glutamate], the “Cephalothin disappeared by absorption, Osmotic pressure X 4” value (Table 11, promoter 0.1% W/V, Example 10 repeated, four-fold tonic) is reported as 21.4 percents and the “Cephalothin disappeared by absorption, Osmotic pressure X 1” value (Table 11, promoter 0.1% W/V, Example 10 repeated, isotonic) is reported as 11.9 percents.

With `O=C(O)c1c(O)cccc1O` [2,6-dihydroxybenzoic acid] the “Cephalothin.Na disappeared by absorption, Osmotic pressure X 1” value (rat, in vivo) was 9.5 percents, the “Cephalothin.Na disappeared by absorption, Osmotic pressure X 2” value (rat, in vivo) was 15.3 percents and the “Cephalothin.Na disappeared by absorption, Osmotic pressure X 4” value (rat, in vivo) was 22.9 percents.

In the case of `CC(=O)CC(=O)Cc1ccccc1` [3-Phenylacetyl acetone, 3-phenylacetyl acetone], the “Cephalothin disappeared by absorption, Osmotic pressure X 4” value (Table 10, diketo-compounds, Example 10 repeated, four-fold tonic) is reported as 22.2 percents, the “Cephalothin disappeared by absorption, Osmotic pressure X 1” value (Table 10, diketo-compounds, Example 10 repeated, isotonic) is reported as 9.1 percents and the “Cephalothin disappeared by absorption, Osmotic pressure X 2” value (Table 10, diketo-compounds, Example 10 repeated, two-fold tonic) is reported as 16.3 percents.

In the case of `O=C(O)CN(CC(=O)O)C1CCCCC1N(CC(=O)O)CC(=O)O` (stereo not drawn) [CyDTA, trans-cyclohexanediaminetetraacetic acid], the “Cephalothin disappeared by absorption, Osmotic pressure (%) X 1” value (from here on “Cephalothin disappeared … (%) X 1”) (rat, in vivo) is reported as 8.1%, the “Cephalothin disappeared by absorption, Osmotic pressure (%) X 2” value (shortened to “Cephalothin disappeared … (%) X 2”) (rat, in vivo) is reported as 15.0% and the “Cephalothin disappeared by absorption, Osmotic pressure (%) X 4” value (“Cephalothin disappeared … (%) X 4” for short) (rat, in vivo) is reported as 32.3%.

For `O=S(=O)(O)c1cc(O)c(O)c(S(=O)(=O)O)c1` [DHBDS, 1,2-dihydroxybenzene-3,5-disulfonic acid], the “Cephalothin disappeared by absorption, Osmotic pressure X 1” value (rat, in vivo) was 9.8 percents and the “Cephalothin disappeared by absorption, Osmotic pressure X 4” value (rat, in vivo) was 22.0 percents.

For `NCC(=O)O` [DL-glycine], the “Cephalothin disappeared by absorption, Osmotic pressure X 4” value [1] was 14.0 percents, the “Cephalothin disappeared by absorption, Osmotic pressure X 1” value [2] was 6.9 percents and the “Cephalothin disappeared by absorption, Osmotic pressure X 2” value (Table 11, promoter 0.5% W/V, Example 10 repeated, two-fold tonic) was 9.4 percents.

With `O=C(O)CN(CC(=O)O)CC(O)CN(CC(=O)O)CC(=O)O` [DTPA-OH, diaminopropanoltetraacetic acid] the “Cephalothin disappeared … (%) X 1” value (rat, in vivo) was 7.5%, the “Cephalothin disappeared … (%) X 2” value (rat, in vivo) was 13.7% and the “Cephalothin disappeared … (%) X 4” value (rat, in vivo) was 21.6%.

In the case of `O=C(O)CN(CCN(CC(=O)O)CC(=O)O)CC(=O)O` [EDTA.2Na, ethylenediaminetetraacetic acid], the “Cephalothin disappeared … (%) X 1” value [3] is reported as 9.4%.

With `O=P(O)(O)CN(CCN(CP(=O)(O)O)CP(=O)(O)O)CP(=O)(O)O` [EDTPO, ethylenediaminetetrakis(methylenephosphonicacid)] the “Cephalothin disappeared by absorption, Osmotic pressure X 1” value (rat, in vivo) was 7.6 percents and the “Cephalothin disappeared by absorption, Osmotic pressure X 4” value (rat, in vivo) was 20.0 percents.

In the case of `CCC(C(=O)O)C(=O)O` [Ethylmalonic acid, ethylmalonic acid], the “Cephalothin disappeared … (%) X 1” value (rat, in vivo) is reported as 12.3%, the “Cephalothin disappeared … (%) X 2” value (rat, in vivo) is reported as 24.2% and the “Cephalothin disappeared … (%) X 4” value (rat, in vivo) is reported as 36.9%.

For `O=P(O)(O)OC[C@H]1O[C@](O)(COP(=O)(O)O)[C@@H](O)[C@@H]1O` [Fructose-1,6-diphosphoric acid], the “Cephalothin disappeared by absorption, Osmotic pressure X 1” value (rat, in vivo) was 4.1 percents, the “Cephalothin disappeared by absorption, Osmotic pressure X 2” value (rat, in vivo) was 7.5 percents and the “Cephalothin disappeared by absorption, Osmotic pressure X 4” value (rat, in vivo) was 13.3 percents.

With `O=C[C@H](O)[C@@H](O)[C@@H](O)[C@H](O)C(=O)O` [Galactronic acid, galacturonic acid] the “Cephalothin disappeared by absorption, Osmotic pressure X 1” value (rat, in vivo) was 5.8 percents, the “Cephalothin disappeared by absorption, Osmotic pressure X 2” value (rat, in vivo) was 10.5 percents and the “Cephalothin disappeared by absorption, Osmotic pressure X 4” value (rat, in vivo) was 16.1 percents.

With `O=C[C@H](O)[C@@H](O)[C@H](O)[C@H](O)C(=O)O` [Glucronic acid, glucuronic acid] the “Cephalothin disappeared by absorption, Osmotic pressure X 1” value (rat, in vivo) was 5.5 percents, the “Cephalothin disappeared by absorption, Osmotic pressure X 2” value (rat, in vivo) was 11.1 percents and the “Cephalothin disappeared by absorption, Osmotic pressure X 4” value (rat, in vivo) was 16.4 percents.

With `O=C(O)CCCC(=O)O` [Glutaric acid, glutaric acid] the “Cephalothin disappeared … (%) X 4” value [4] was 15.2%, the “Cephalothin disappeared … (%) X 1” value [3] was 5.7% and the “Cephalothin disappeared … (%) X 2” value [5] was 9.3%.

For `O=C(O)CNCC(=O)O` [Iminodiacetic acid, iminodiacetic acid], the “Cephalothin disappeared … (%) X 1” value (rat, in vivo) was 7.1%, the “Cephalothin disappeared … (%) X 2” value (rat, in vivo) was 14.2% and the “Cephalothin disappeared … (%) X 4” value (rat, in vivo) was 17.0%.

For `CC(=O)CCC(=O)O` [Levulinic acid, levulinic acid], the “Cephalothin disappeared … (%) X 1” value (rat, in vivo) was 11.9%, the “Cephalothin disappeared … (%) X 2” value (rat, in vivo) was 21.1% and the “Cephalothin disappeared … (%) X 4” value (rat, in vivo) was 34.3%.

For `O=C(O)CC(O)C(=O)O` (stereo not shown) [Malic acid, malic acid], the “Cephalothin disappeared by absorption, Osmotic pressure X 4” value (Table 6, promoter 0.1 W/V %, 0.1 W/V % Cephalothin.Na, four-fold tonic, one hour) was 18.8 percents, the “Cephalothin disappeared by absorption, Osmotic pressure X 1” value (Table 6, promoter 0.1 W/V %, 0.1 W/V % Cephalothin.Na, isotonic, one hour) was 7.2 percents and the “Cephalothin disappeared by absorption, Osmotic pressure X 2” value (Table 6, promoter 0.1 W/V %, 0.1 W/V % Cephalothin.Na, two-fold tonic, one hour) was 12.3 percents.

For `CN(C)[C@@H](Cc1ccccc1)C(=O)O` [N--dimethylphenylalanine, N-dimethylphenylalanine], the “Cephalothin disappeared by absorption, Osmotic pressure X 1” value (rat, in vivo) was 10.9 percents and the “Cephalothin disappeared by absorption, Osmotic pressure X 4” value (rat, in vivo) was 25.5 percents.

With `O=C(O)CNc1ccccc1` [N--phenylglycine, N-phenylglycine] the “Cephalothin disappeared by absorption, Osmotic pressure X 1” value (rat, in vivo) was 12.0 percents, the “Cephalothin disappeared by absorption, Osmotic pressure X 2” value (rat, in vivo) was 22.3 percents and the “Cephalothin disappeared by absorption, Osmotic pressure X 4” value (rat, in vivo) was 30.8 percents.

With `O=C(O)CCCCCC(=O)O` [Pimellic acid, pimellic acid] the “Cephalothin disappeared … (%) X 1” value (rat, in vivo) was 5.1%, the “Cephalothin disappeared … (%) X 2” value (rat, in vivo) was 7.8% and the “Cephalothin disappeared … (%) X 4” value (rat, in vivo) was 15.0%.

With `O=CC(=O)[O-].[Na+]` [Sodium glyoxalate, sodium glyoxalate] the “Cephalothin disappeared … (%) X 4” value [6] was 13.1% and the “Cephalothin disappeared … (%) X 1” value (Table 5, promoter 0.1% W/V, 0.1% W/V Cephalothin.Na, isotonic, one hour) was 4.9%.

In the case of `O=C([O-])C(=O)C(=O)[O-].[Na+].[Na+]` [Sodium ketomalonate, sodium ketomalonate], the “Cephalothin disappeared … (%) X 1” value (rat, in vivo) is reported as 8.4%, the “Cephalothin disappeared … (%) X 2” value (rat, in vivo) is reported as 12.7% and the “Cephalothin disappeared … (%) X 4” value (rat, in vivo) is reported as 19.6%.

In the case of `O=C([O-])C(=O)[O-].[Na+].[Na+]` [Sodium oxalate, sodium oxalate], the “Cephalothin disappeared … (%) X 4” value [4] is reported as 18.3% and the “Cephalothin disappeared … (%) X 1” value [3] is reported as 6.6%.

In the case of `O=C([O-])c1ccccc1C(=O)[O-].[Na+].[Na+]` [Sodium phthalate, sodium phthalate], the “Cephalothin.Na disappeared by absorption, Osmotic pressure X 1” value (rat, in vivo) is reported as 7.1 percents and the “Cephalothin.Na disappeared by absorption, Osmotic pressure X 4” value (rat, in vivo) is reported as 18.9 percents.

With `CC(=O)C(=O)[O-].[Na+]` [Sodium pyruvate, sodium pyruvate] the “Cephalothin disappeared … (%) X 1” value (rat, in vivo) was 7.0%, the “Cephalothin disappeared … (%) X 2” value (rat, in vivo) was 11.6% and the “Cephalothin disappeared … (%) X 4” value (rat, in vivo) was 23.1%.

For `O=C(O)CCC(=O)O` [Succinic acid], the “Cephalothin disappeared … (%) X 1” value (rat, in vivo) was 8.2%, the “Cephalothin disappeared … (%) X 2” value (rat, in vivo) was 13.1% and the “Cephalothin disappeared … (%) X 4” value (rat, in vivo) was 24.0%.

With `O=C(O)/C=C(\CC(=O)O)C(=O)O` [Trans-aconitic acid, trans-aconitic acid] the “Cephalothin disappeared … (%) X 4” value [4] was 27.8%, the “Cephalothin disappeared … (%) X 1” value [3] was 10.5% and the “Cephalothin disappeared … (%) X 2” value [5] was 18.6%.

For `CCC(=O)C(=O)O` [α-ketobutyric acid], the “Cephalothin disappeared … (%) X 1” value (rat, in vivo) was 11.2%, the “Cephalothin disappeared … (%) X 2” value (rat, in vivo) was 18.3% and the “Cephalothin disappeared … (%) X 4” value (rat, in vivo) was 30.9%.

With `O=C(O)CCC(=O)C(=O)O` [α-ketoglutaric acid] the “Cephalothin disappeared … (%) X 4” value [6] was 25.6%.

For `CCCC(=O)C(=O)O` [α-ketovaleric acid], the “Cephalothin disappeared … (%) X 1” value (rat, in vivo) was 9.8%, the “Cephalothin disappeared … (%) X 2” value (rat, in vivo) was 14.7% and the “Cephalothin disappeared … (%) X 4” value (rat, in vivo) was 23.2%.

In the case of `N[C@@H](CC(C(=O)O)C(=O)O)C(=O)O` [γ-carboxyglutamic acid], the “Cephalothin disappeared by absorption, Osmotic pressure X 1” value (rat, in vivo) is reported as 13.1 percents, the “Cephalothin disappeared by absorption, Osmotic pressure X 2” value (rat, in vivo) is reported as 24.6 percents and the “Cephalothin disappeared by absorption, Osmotic pressure X 4” value (rat, in vivo) is reported as 31.4 percents.

For `NCCCCCC(=O)O` [ε-aminocaproic acid], the “Cephalothin disappeared by absorption, Osmotic pressure X 1” value (rat, in vivo) was 7.1 percents, the “Cephalothin disappeared by absorption, Osmotic pressure X 2” value (rat, in vivo) was 11.8 percents and the “Cephalothin disappeared by absorption, Osmotic pressure X 4” value (rat, in vivo) was 17.0 percents.
